Experimental data as given in publication PMC6277767, “Broad and Region-Specific Impacts of the Synthetic Cannabinoid CP 55,940 in Adolescent and Adult Female Mouse Brains” (Frontiers in Molecular Neuroscience, 2018).

Tested on: CD1 female mouse brain lipidome
Test: Brain-region lipid levels (HPLC/MS/MS lipidomics) 2 h after single i.p. 3 mg/kg CP 55,940 vs vehicle
Type: in vivo
Set-up: N-arachidonoyl phenylalanine level, Mean / N-stearoyl tryptophan level, Mean / N-stearoyl proline level, Mean / N-stearoyl leucine level, Mean / N-stearoyl phenylalanine level, Mean / N-stearoyl serine level, Mean / N-stearoyl methionine level, Mean: unit: moles per gram
Details: midbrain
Description: The Bloomington Institutional Animal Care and Use Committee of Indiana University reviewed and approved the animal procedures. Female mice from the CD1 strain were utilized to match our study examining THC’s effects on the brain lipidome ([Leishman et al., 2018]). Mice were given a single i.p. injection of either 3 mg/kg CP or 1:1:18 cremophor:ethanol:saline vehicle (please refer to the section “3 mg/kg CP Is Relevant for Synthetic Cannabinoid Abuse and Has Stronger Effects on the Female Mouse Brain Lipidome During Adolescence” for a justification of dose and use of female mice). Three different age groups were given injections: PND 35 and PND 50 adolescents, and adult mice (PND 113). At least eight mice in each age group received CP and at least eight received vehicle. Matching the THC study time course ([Leishman et al., 2018]), mice were sacrificed via rapid decapitation 2 h after injection. Brains were immediately removed and flash-frozen in liquid nitrogen, and then stored at -80°C until dissections were performed. Brains were dissected on an ice-cold dissection plate into the following regions: STR, HIPP, CER, THAL, CTX, HYP, MID, and STEM. These abbreviations for these brain areas will be used exclusively when discussing the results generated by these specific dissections. Each dissected area was immediately placed in liquid nitrogen and then stored at -80°C until used for lipid extraction.
Tissue extracts were performed as previously described ([Bradshaw et al., 2006]; [Stuart et al., 2013]; [Raboune et al., 2014]; [Leishman et al., 2016a],[b], [2017], [2018]). First, samples were shock frozen in liquid nitrogen, weighed, and transferred to a centrifuge tube. The mass of the largest sample was multiplied by 50 to determine how many milliliters of HPLC-grade methanol (Fisher, Fair Lawn, NJ, United States) to add. Then, samples were spiked with 500 pmol deuterium-labeled NAGly (d8NAGly; Cayman Chemical, Ann Arbor, MI, United States). Samples were placed on ice in darkness for 2 h then individually homogenized and centrifuged at 19,000 × g for 20 min at 20°C. Supernatants were diluted with HPLC water (purified in house) to make a solution of 75% water, 25% supernatant. Lipids were partially purified on C18 solid phase extraction columns (Agilent, Palo Alto, CA, United States). A series of four elutions with 1.5 mL of 60%, 75%, 85%, and 100% methanol were collected ([Stuart et al., 2013]; [Leishman et al., 2016a],[b], [2018]).
As previously described ([Bradshaw et al., 2006]; [Tan et al., 2006]; [Smoum et al., 2010]; [Stuart et al., 2013]; [Tortoriello et al., 2013]; [Raboune et al., 2014]; [Leishman et al., 2016a],[b], [2017], [2018]), samples were analyzed using an Applied Biosystems API 3000 triple quadrupole mass spectrometer with electrospray ionization (Foster City, CA, United States). Using an Agilent XDB-C18 reversed phase analytical column and optimized mobile phase gradients, 20 μL from each elution were chromatographed. Two Shimadzu 10ADvp pumps (Columbia, MD, United States) provided the pressure for gradient elution. Mobile phase A: 20% methanol, 80% water (v/v) and 1 mM ammonium acetate (Sigma, St. Louis, MO, United States). Mobile phase B: 100% methanol, 1 mM ammonium acetate. Every method run began with 0% mobile phase B, reached 100% mobile phase B flowing at 0.2 mL/min, and gradually returned to 0% mobile phase B.
This screening library will be referred to as the lipidome when discussing data from this study. HPLC/MS/MS data were analyzed using Analyst software (Applied Biosystems) ([Bradshaw et al., 2006]; [Tan et al., 2006]; [Stuart et al., 2013]; [Tortoriello et al., 2013]; [Raboune et al., 2014]; [Leishman et al., 2016a],[b], [2017], [2018]). Chromatograms (Supplementary Figure 3) were generated by determining the retention time of analytes from the analytical column with a [M-1] or [M+1] parent peak and a fragmentation peak corresponding to the programmed values. […]

[1] = PND 50 female mice, 3mg/kg CP 55,940
[2] = PND 35 WT adolescent female mice, 3 mg/kg

SMILES: CCCCCCC(C)(C)c1ccc([C@@H]2C[C@H](O)CC[C@H]2CCCO)c(O)c1 [CP 55,940]
- N-linoleoyl serine level, Mean [1]: 6.73E-11
- N-linoleoyl tryptophan level, Mean [1]: BDL
- N-linoleoyl tyrosine level, Mean [1]: BDL
- N-linoleoyl valine level, Mean [1]: BDL
- N-nervonoyl valine level, Mean [1]: BDL
- N-oleoyl GABA level, Mean [1]: 5.62E-12
- N-oleoyl alanine level, Mean [1]: 6.9E-13
- N-oleoyl dopamine level, Mean [1]: BDL
- N-oleoyl ethanolamine level, Mean [1]: 1.01E-10
- N-oleoyl glycine level, Mean [1]: 3.06E-12
- N-oleoyl leucine level, Mean [1]: 5.64E-13
- N-oleoyl methionine level, Mean [1]: 3.18E-13
- N-oleoyl phenylalanine level, Mean [1]: 1.15E-12
- N-oleoyl proline level, Mean [1]: BDL
- N-oleoyl serine level, Mean [1]: 1.24E-10
- N-oleoyl tryptophan level, Mean [1]: BDL
- N-oleoyl tyrosine level, Mean [1]: 3.77E-13
- N-oleoyl valine level, Mean [1]: 6.01E-14
- N-palmitoyl GABA level, Mean [1]: 1.3E-11
- N-palmitoyl alanine level, Mean [1]: 1.18E-12
- N-palmitoyl ethanolamine level, Mean [1]: 7.69E-11
- N-palmitoyl glycine level, Mean [1]: 1.39E-11
- N-palmitoyl leucine level, Mean [1]: 1.38E-12
- N-palmitoyl methionine level, Mean [1]: 1.13E-12
- N-palmitoyl phenylalanine level, Mean [1]: 1.94E-12
- N-palmitoyl proline level, Mean [1]: BDL
- N-palmitoyl serine level, Mean [1]: 1.74E-11
- N-palmitoyl tryptophan level, Mean [1]: BDL
- N-palmitoyl tyrosine level, Mean [1]: 8.39E-13
- N-palmitoyl valine level, Mean [1]: 3.48E-13
- N-stearoyl GABA level, Mean [1]: 1.21E-11
- N-stearoyl alanine level, Mean [1]: 3.21E-13
- N-stearoyl ethanolamine level, Mean [1]: 3.26E-11
- N-stearoyl glycine level, Mean [1]: 1.13E-12
- N-stearoyl leucine level, Mean [1]: 7.66E-13
- N-stearoyl methionine level, Mean [1]: 1.11E-12
- N-stearoyl phenylalanine level, Mean [1]: 1.62E-12
- N-stearoyl proline level, Mean [1]: BDL
- N-stearoyl serine level, Mean [1]: 3.85E-11
- N-stearoyl tryptophan level, Mean [1]: BDL
- N-stearoyl tyrosine level, Mean [1]: 1.16E-13
- Oleic acid level, Mean [1]: 3.11E-10
- PGE2 level, Mean [1]: 1.09E-10
- PhosphoLEA level, Mean [1]: PISSR
- THC level, Mean [1]: BDL
- 2-arachidonoyl glycerol level, Mean [2]: 3.74E-10
- 2-linoleoyl glycerol level, Mean [2]: 1.59E-10
- 2-oleoyl glycerol level, Mean [2]: 1.88E-09
- 2-palmitoyl glycerol level, Mean [2]: 4.69E-10
- 6-ketoPGF1α level, Mean [2]: 2.09E-11
- Arachidonic acid level, Mean [2]: 1.63E-09
- Linoleic acid level, Mean [2]: 5.14E-10
- N- stearoyl valine level, Mean [2]: 1.32E-12
- N-arachidonoyl GABA level, Mean [2]: 1.53E-11
- N-arachidonoyl alanine level, Mean [2]: 8.2E-12
- N-arachidonoyl ethanolamine level, Mean [2]: 2.18E-11
- N-arachidonoyl glycine level, Mean [2]: 4.42E-11
- N-arachidonoyl methionine level, Mean [2]: 1.48E-12
- N-arachidonoyl phenylalanine level, Mean [2]: 1.53E-12
- N-arachidonoyl serine level, Mean [2]: 6.81E-12
- N-arachidonoyl taurine level, Mean [2]: 3.84E-11
- N-arachidonoyl tyrosine level, Mean [2]: 1.5E-12
- N-docosahexaenoyl GABA level, Mean [2]: 2.08E-12
- N-docosahexaenoyl alanine level, Mean [2]: 3.78E-12
- N-docosahexaenoyl ethanolamine level, Mean [2]: 3.99E-11
- N-docosahexaenoyl glycine level, Mean [2]: 1.87E-11
- N-docosahexaenoyl leucine level, Mean [2]: 7.41E-13
- N-docosahexaenoyl methionine level, Mean [2]: 4.7E-13
- N-docosahexaenoyl phenylalanine level, Mean [2]: 1.08E-12
- N-docosahexaenoyl serine level, Mean [2]: 2.39E-11
- N-docosahexaenoyl tyrosine level, Mean [2]: 1.6E-12
- N-docosahexaenoyl valine level, Mean [2]: 3.26E-13
- N-linoleoyl GABA level, Mean [2]: 7.43E-13
- N-linoleoyl alanine level, Mean [2]: 1.52E-12
- N-linoleoyl ethanolamine level, Mean [2]: 3.78E-11
- N-linoleoyl glycine level, Mean [2]: 4.58E-12
- N-linoleoyl leucine level, Mean [2]: 3.56E-13
- N-linoleoyl phenylalanine level, Mean [2]: 2.21E-13
- N-linoleoyl serine level, Mean [2]: 5.04E-11
- N-oleoyl GABA level, Mean [2]: 4E-12
- N-oleoyl alanine level, Mean [2]: 7.02E-12
- N-oleoyl ethanolamine level, Mean [2]: 1.94E-10
- N-oleoyl glycine level, Mean [2]: 2.31E-11
- N-oleoyl leucine level, Mean [2]: 1.53E-12
- N-oleoyl methionine level, Mean [2]: 1.46E-12
- N-oleoyl phenylalanine level, Mean [2]: 1.6E-12
- N-oleoyl serine level, Mean [2]: 2.91E-10
- N-oleoyl tryptophan level, Mean [2]: 1.39E-13
- N-oleoyl tyrosine level, Mean [2]: 1.05E-12
- N-oleoyl valine level, Mean [2]: 1.38E-12
- N-palmitoyl GABA level, Mean [2]: 1.05E-11
- N-palmitoyl alanine level, Mean [2]: 1.05E-11
- N-palmitoyl ethanolamine level, Mean [2]: 9.08E-11
- N-palmitoyl glycine level, Mean [2]: 4.59E-11
- N-palmitoyl leucine level, Mean [2]: 3.23E-12
- N-palmitoyl methionine level, Mean [2]: 2.56E-12
- N-palmitoyl phenylalanine level, Mean [2]: 3.04E-12
- N-palmitoyl proline level, Mean [2]: 9.03E-13
- N-palmitoyl serine level, Mean [2]: 9.45E-11
- N-palmitoyl tryptophan level, Mean [2]: 4.42E-13
- N-palmitoyl tyrosine level, Mean [2]: 2.19E-12
- N-palmitoyl valine level, Mean [2]: 2.86E-12
